Earlier results on two molecules are cited in patent US20130096948A1, “METHODS FOR DIAGNOSIS, PROGNOSIS AND TREATMENT” (Nodality, Inc., priority 2009, published 2013).

Like-named read-outs stand apart in the source and are kept apart here.

For the molecule `COc1cccc2c1C(=O)c1c(O)c3c(c(O)c1C2=O)C[C@@](O)(C(C)=O)C[C@@H]3O[C@H]1C[C@H](N)[C@H](O)[C@H](C)O1` [Daunorubicin], the peak plasma concentration runs as follows: (Daunorubicin at 25 mg/m2) 50 ng/mL; (Daunorubicin at 50 mg/m2) 200 ng/mL.

Regarding `Nc1ccn([C@@H]2O[C@H](CO)[C@@H](O)[C@@H]2O)c(=O)n1` [Cytarabine], the peak plasma concentration is, setting by setting: (high dose Cytarabine, 3 g/m2) 2 µM; (standard dose of Cytarabine, 100 mg/m2) “approximately 40 nM”.
